The source of these data is ChEMBL document CHEMBL1131920, “Periodinates: a new class of protein tyrosine phosphatase inhibitors” (Bioorg Med Chem Lett, 1999).

The species named for assay [1] is Rattus norvegicus. In words: Inhibition of protein tyrosine phosphatase (PTP) activity in rat liver endosome insulin receptor (IR) dephosphorylation assay at 0.1 mM.
The species entered for assay [2] is Rattus norvegicus. The assay can be described thus: Inhibition of protein tyrosine phosphatase (PTP) activity in rat liver endosome insulin receptor (IR) dephosphorylation assay at 1 mM.
Assay [3] addresses T1, Tyrosine-protein phosphatase non-receptor type 1 (Homo sapiens, UniProt P18031).
T1 sequence (P18031 whole entry): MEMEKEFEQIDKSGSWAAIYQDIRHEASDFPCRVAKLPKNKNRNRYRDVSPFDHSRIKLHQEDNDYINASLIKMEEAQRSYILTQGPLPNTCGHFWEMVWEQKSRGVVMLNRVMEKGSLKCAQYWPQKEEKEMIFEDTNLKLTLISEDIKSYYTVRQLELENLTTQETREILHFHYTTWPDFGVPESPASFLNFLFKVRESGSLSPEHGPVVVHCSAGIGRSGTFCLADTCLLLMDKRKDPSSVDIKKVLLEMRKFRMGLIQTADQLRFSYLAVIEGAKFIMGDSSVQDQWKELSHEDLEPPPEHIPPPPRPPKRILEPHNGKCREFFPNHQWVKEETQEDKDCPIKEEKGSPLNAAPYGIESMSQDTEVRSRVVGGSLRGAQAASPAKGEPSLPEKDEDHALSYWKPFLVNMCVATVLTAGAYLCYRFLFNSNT
The assay can be described thus: Inhibition of protein tyrosine phosphatase 1B (PTP1B) activity in 3,6-fluorescein diphosphate (FDP) assay.

Assay [4] concerns the target T1, Tyrosine-protein phosphatase non-receptor type 1. In words: Inhibition of protein tyrosine phosphatase 1B (PTP1B) activity in 3,6-fluorescein diphosphate (FDP) assay; NI= no inhibition.

In the case of `O=C(O)c1cccc(I(=O)=O)c1`, the inhibition came out at 32% in the assay listed under Rattus norvegicus [1] and 67% in the assay filed under Rattus norvegicus [2]. In assay [3], this compound showed an IC50 of 890 µM.

Regarding `OO`, the results for the inhibition in the assay listed under Rattus norvegicus [1] and in the assay filed under Rattus norvegicus [2] were 0% and 65%, respectively.

For `CC(=O)OI1(OC(C)=O)(OC(C)=O)OC(=O)c2ccccc21`, the inhibition was 50% in the assay listed under Rattus norvegicus [1] and 69% in the assay listed under Rattus norvegicus [2]. Further, in assay [3], the IC50 was 130 µM.

Take `O=I(=O)c1c[nH]cn1`: the inhibition in the assay filed under Rattus norvegicus [1] turned out to be 22%; in the assay filed under Rattus norvegicus [2], 43%. The compound further came in with an IC50 in assay [3] of 1050 µM.

In the assay listed under Rattus norvegicus [1], `O=P1(O)Oc2ccccc2I(=O)(O)O1` (stereo not given) registered an inhibition of 17%. For the same compound, in assay [3], the 50% inhibitory concentration (IC50) worked out at 350 µM.

For `O=I(=O)c1ccccc1`, the results for the inhibition in the assay filed under Rattus norvegicus [1] and in the assay listed under Rattus norvegicus [2] were 0% and 88%, respectively. The same compound had an IC50 in assay [3] of 2650 µM.

Regarding `O=[N+]([O-])c1cccc(I(=O)=O)c1`, the inhibition in the assay listed under Rattus norvegicus [1] turned out to be 27%; in the assay filed under Rattus norvegicus [2], 86%. Also, in assay [3], the IC50 stood at 1140 µM.

On to `O=C1OI(O)c2ccccc21`, for which the IC50 entry in assay [4] is recorded as “Not Active”. In the assay filed under Rattus norvegicus [2], the inhibition was determined as 10%.

`Cc1ccc(I(=O)=O)cc1`: the inhibition came to 6% in the assay listed under Rattus norvegicus [1] and 47% in the assay filed under Rattus norvegicus [2]. The compound further showed an IC50 in assay [3] of 1510 µM.

Regarding `O=I(=O)c1ccc(I(=O)=O)cc1`, the inhibition in the assay filed under Rattus norvegicus [2] stood at 30%. This compound had an IC50 in assay [3] of 1410 µM.

Regarding `CC(C)(C)OOI1OC(=O)c2ccccc21`, the inhibition was 48% in the assay listed under Rattus norvegicus [1] and 78% in the assay filed under Rattus norvegicus [2]. The compound further registered an IC50 in assay [3] of 230 µM.

Turning to `O=C1OI(=O)(O)c2ccccc21` (stereo not given), the inhibition in the assay filed under Rattus norvegicus [1] came out at 36%; in the assay listed under Rattus norvegicus [2], 98%. The IC50 in assay [3] was 1160 µM.

For the compound `O=[N+]([O-])c1ccc(I(=O)=O)cc1`, the inhibition is 30% in the assay filed under Rattus norvegicus [1] and 90% in the assay filed under Rattus norvegicus [2]. Moreover, 130 µM corresponded to half-maximal inhibition in assay [3] (IC50).

Broadly, the inhibition is the drop in the measured response relative to a control, in per cent. A higher inhibition goes with a strong effect. Usually IC50 stands for the point on the concentration scale where inhibition reaches its midpoint.
